Measured values from patent publication EP3843702B1, “IMMEDIATE RELEASE FIXED-DOSE COMBINATION OF MEMANTINE AND DONEPEZIL” (Tecnimede, Sociedade Técnico-Medicinal, SA, priority 2019, dated 2020).

Conditions: in vivo

Question: For `CC12CC3CC(C)(C1)CC(N)(C3)C2` [Memantine 20mg, 3,5-dimethyladamantan-1-amine], which “AUC 0→72 Point Estimate [%]” value is on record?
Answer: 103.89%

Question: What about the “Cmax Point Estimate [%]” value of the same molecule?
Answer: 101.40%
